Measurements reported in patent US7544768B2, “Peptides for inducing apoptosis in tumor cells” (Deutsches Krebsforschungszentrum Stiflung des Offentlichen …, priority 2002, dated 2009).

Tests used:
Assay in all cases: Colony formation assay, transfected expression vectors
Type in all cases: cell-based
MeWo (melanoma cells) = conditions: nucleic acid coding for peptide transfected
From the text: (§1) The nucleic acids coding for the peptides of TABLE 3 were cloned into mammalian expression vectors and transfected into different cells to observe their further growth. By using a HIS-tag it was possible to verify that all peptide sequences could be expressed.

[1] = test system: livin-expressing HeLa cells; conditions: nucleic acid coding for peptide transfected; FIG. 3
From the text: (§2) Expression vectors bearing the nucleic acid coding for peptide number 75 (corresponds to SEQ ID No: 127 or number 41 of TABLE 2) or bearing the nucleic acid coding for control peptide were introduced in HeLa cells and livin-negative C33a cells. The cells were selected for stable transfectants.
as §1

[2] = test system: livin-negative C33a cells; conditions: nucleic acid coding for peptide transfected; FIG. 3
From the text: as §2, §1

## GSRCIRRRISILFFVFRVLRSRRVLRSAEIYES* (randomized peptide that bind to particular IAPs) [compound 75]
MeWo (melanoma cells)
  growth of MeWo (melanoma cells): blocked the growth
[1]
  growth of livin-expressing HeLa cells: blocked the growth
[2]
  growth of livin-negative C33a cells: not affected
